According to paper PMC8546428, “Convergent olfactory trace amine-associated receptors detect biogenic polyamines with distinct motifs via a conserved binding site” (The Journal of Biological Chemistry, 2021):
Where a chain is given by its changes, count along the chain named.

Tests used:
sTAAR365 D3.32E [1] = biological target: T1, sTAAR365 D3.32E (Petromyzon marinus, UniProt A0A678XMK4, D114E)
T1 sequence (A0A678XMK4 1-365 D114E): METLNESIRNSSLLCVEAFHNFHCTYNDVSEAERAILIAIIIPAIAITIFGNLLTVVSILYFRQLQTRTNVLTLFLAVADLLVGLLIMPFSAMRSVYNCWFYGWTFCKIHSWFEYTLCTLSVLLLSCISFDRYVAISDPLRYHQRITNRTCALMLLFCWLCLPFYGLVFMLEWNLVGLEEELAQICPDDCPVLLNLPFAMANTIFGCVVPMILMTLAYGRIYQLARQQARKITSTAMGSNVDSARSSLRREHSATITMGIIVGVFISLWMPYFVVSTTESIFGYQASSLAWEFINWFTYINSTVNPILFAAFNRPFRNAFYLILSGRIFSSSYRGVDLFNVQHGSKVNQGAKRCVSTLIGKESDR

sTAAR365 D3.32E [2] = biological target: T1, sTAAR365 D3.32E; assay: cell-based
sTAAR365 Y6.51L = biological target: T2, sTAAR365 Y6.51L (Petromyzon marinus, UniProt A0A678XMK4, Y272L); assay: cell-based
T2 sequence (A0A678XMK4 1-365 Y272L): T1 sequence (A0A678XMK4 1-365 D114E) with E114D, Y272L

sTAAR365 T7.42A = biological target: T3, sTAAR365 T7.42A (Petromyzon marinus, UniProt A0A678XMK4, T298A); assay: cell-based
T3 sequence (A0A678XMK4 1-365 T298A): T1 sequence (A0A678XMK4 1-365 D114E) with E114D, T298A

sTAAR365 T7.42S = sTAAR365 T7.42S (Petromyzon marinus, UniProt A0A678XMK4, T298S); assay: cell-based
sTAAR365 T7.42S, sequence (A0A678XMK4 whole entry T298S): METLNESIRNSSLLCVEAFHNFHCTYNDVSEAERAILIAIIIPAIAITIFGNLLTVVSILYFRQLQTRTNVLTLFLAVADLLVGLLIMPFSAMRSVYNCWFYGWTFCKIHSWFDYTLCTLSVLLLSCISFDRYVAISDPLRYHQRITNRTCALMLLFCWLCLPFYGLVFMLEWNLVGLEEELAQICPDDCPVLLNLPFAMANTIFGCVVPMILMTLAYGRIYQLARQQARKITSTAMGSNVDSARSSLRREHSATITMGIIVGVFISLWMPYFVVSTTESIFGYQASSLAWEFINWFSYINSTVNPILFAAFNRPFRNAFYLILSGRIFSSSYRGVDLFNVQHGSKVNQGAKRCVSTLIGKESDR

sTAAR365 T7.42V = biological target: T4, sTAAR365 T7.42V (Petromyzon marinus, UniProt A0A678XMK4, T298V); assay: cell-based
T4 sequence (A0A678XMK4 1-365 T298V): T1 sequence (A0A678XMK4 1-365 D114E) with E114D, T298V

sTAAR365 E7.36D = biological target: T5, sTAAR365 E7.36D (Petromyzon marinus, UniProt A0A678XMK4, E292D); assay: cell-based
T5 sequence (A0A678XMK4 1-365 E292D): T1 sequence (A0A678XMK4 1-365 D114E) with E114D, E292D

sTAAR365 E7.36Q = sTAAR365 E7.36Q (Petromyzon marinus, UniProt A0A678XMK4, E292Q); assay: cell-based
sTAAR365 E7.36Q, sequence (A0A678XMK4 whole entry E292Q): as the sequence (A0A678XMK4 whole entry T298S) above, with E292Q, S298T counted along it

sTAAR365 Y7.43F = sTAAR365 Y7.43F (Petromyzon marinus, UniProt A0A678XMK4, Y299F); assay: cell-based
sTAAR365 Y7.43F, sequence (A0A678XMK4 whole entry Y299F): as the sequence (A0A678XMK4 whole entry T298S) above, with S298T, Y299F counted along it

sTAAR365 Y7.43L = sTAAR365 Y7.43L (Petromyzon marinus, UniProt A0A678XMK4, Y299L); assay: cell-based
sTAAR365 Y7.43L, sequence (A0A678XMK4 whole entry Y299L): as the sequence (A0A678XMK4 whole entry T298S) above, with S298T, Y299L counted along it

sTAAR365 W7.40F = sTAAR365 W7.40F (Petromyzon marinus, UniProt A0A678XMK4, W296F); assay: cell-based
sTAAR365 W7.40F, sequence (A0A678XMK4 whole entry W296F): as the sequence (A0A678XMK4 whole entry T298S) above, with W296F, S298T counted along it

SMILES	Hill slope of concentration-response curve (sTAAR365 D3.32E [1])	increase of EC50 vs wild-type sTAAR365 (sTAAR365 D3.32E [1])	EC50 (sTAAR365 D3.32E [2]) [µM]	EC50 (sTAAR365 Y6.51L) [µM]	EC50 (sTAAR365 T7.42A) [µM]	EC50 (sTAAR365 T7.42S) [µM]	EC50 (sTAAR365 T7.42V) [µM]	EC50 (sTAAR365 E7.36D) [µM]	EC50 (sTAAR365 E7.36Q) [µM]	EC50 (sTAAR365 Y7.43F) [µM]	EC50 (sTAAR365 Y7.43L) [µM]	EC50 (sTAAR365 W7.40F) [µM]
NCCCCCN [cadaverine]	1.44	three	14 ± 0.5	> 100	31 ± 24	0.126 ± 0.013	9 ± 2	0.007 ± 0.002	0.06 ± 0.011	2 ± 0.2	1 ± 0.2	0.223 ± 0.037
NCCCCN [putrescine]		one	> 500		> 500		> 500	72 ± 14		> 1000	> 1000	> 500
NCCCNCCCCNCCCN [spermine]				> 500		64 ± 7		> 500	> 500			
